Measured values as given in patent US12162918B2, “Periostin compounds for the treatment of haematological complications” (Chemotherapeutisches Forschungsinstitut Georg-Speyer-Haus, priority 2018, dated 2024).
Entries after “also recorded” stand apart in the source; their conditions may differ.

Columns and labels:
wildtype mice = test: Complete blood count and flow cytometry of peripheral blood and bone marrow of treated mice; format: in vivo; conditions: for absolute number of monocytes in peripheral blood / absolute number of leukocytes in peripheral blood: 14 days after initiation
Experimental: (§1) 0.5 mg/kg/d or 0.05 mg/kg/d of warfarin, resuspended in phosphate-buffered saline was administered to mice via subcutaneously implanted osmotic minipumps (ALZET minipumps, Cupertino, CA). The osmotic minipumps were changed after 14 days (if the experiment went beyond 14 days of treatment). Sham operated (skin incision and suture) mice served as controls. Warfarin treatment continued for 10-14 days. In the xenotransplantation experiments the mice were treated with warfarin via the drinking water (or normal drinking water) at a dose of 0.72 mg/100 ml for a total of 3 days a week (Pfeilschifter et al., 2011).
5-fluorouracil was intraperitoneally injected every week at a dose of 75 mg/kg for a total of 4 doses or as a one time dose of 200 mg/kg. Recombinant mouse periostin (R&D Systems, Minneapolis, MN, cat. no. 2955-F2), produced in the Sf21 (baculovirus)-derived insect cell line, was administered intravenously at a dose of 2-4 μg per day and vitamin K was given at a dose of 15 mg/kg by oral gavage for four consecutive days.
We assessed the complete blood count of vehicle or warfarin-treated mice using a complete blood count analyzer (Scil Vet ABC, Gurnee, IL). Peripheral blood and bone marrow samples were stained with antibodies for flow cytometry, which was performed on a BD LSR Fortessa (BD Biosciences, Heidelberg, Germany). The lineage antibody cocktail contained antibodies to B220, CD5, Ter119, F4/80 and CD11b. Engraftment of human cells in NSG mice was assessed using anti-human CD45 (BD Biosciences, San José, CA).

HSC = test: Competitive, serial and limiting dilution transplantation assays of whole bone marrow; format: in vivo, mice
Experimental: SJL (CD45.1) donor mice were treated with vehicle or warfarin, euthanized and long bones were flushed, followed by RBC lysis (Life Technologies, Darmstadt, Germany). For competitive transplantation 2×10^6 total BM cells from SJL mice were co-transplanted with 1×10^6 CD45.2+ BM competitor cells into lethally irradiated (900 cGy) C57BL/6N (CD45.2+) recipient mice. For serial transplantation 2×10^6 total CD45.1+ BM cells were transplanted into lethally irradiated C57BL/6N recipient mice. Cell engraftment and chimerism were assessed by flow cytometry of peripheral blood leukocytes for CD45.1 and CD45.2 after 4, 8, 12 and 16 weeks post transplantation. In the limiting dilution experiment we treated primary CD45.1+ donor mice with vehicle or warfarin for 14 days and, consequently, transplanted 5×10^5, 12.5×10^4, 6×10^4 and 1.5×10^4 pooled BM cells into 5 CD45.2+ recipients per group adding 5×10^5 CD45.2+ supporter cells. In indicated experiments we transplanted 5,000 or 10,000 sorted CD45.1+ LKS cells from mice treated with vehicle or warfarin plus 1×10^6 CD45.2+ total BM supporter cells into CD45.2+ recipient mice.
Differences in survival were assessed by Kaplan-Meier non-parametric estimates (Log-rank test) and between groups by student's t-test. The data were presented as mean±s.d. We used L-Calc software (Stemcell Technologies, Vancouver, Canada) to calculate HSC frequency by Poisson statistics. P values≤0.05 were accepted as significant.

Lin− and LKS cells = test: Homing assay to a warfarin-treated BMM; format: in vivo, mice; conditions: 18 hours after transplantation
Experimental: In the homing assay, we intravenously transplanted 9×10^6 Actin DsRed+ whole BM cells into C57BL/6N mice treated with vehicle or warfarin for 14 days. 18 hours later, we analyzed BM and spleen cells of recipient mice for the presence of DsRed+ LKS cells.

[1] = system: Nestin-GFP or Col2.3 kb GFP mice; test: Enumeration of Nestin-GFP+ MSC and Col2.3 kb GFP+ osteoblastic cells in bones; format: in vivo; conditions: warfarin 14 days
From the text: 7 to 10 week old C57BL6/N (CD45.2) or SJL (CD45.1; B6.SJL-Ptprca Pepcb/BoyJ), Col1a1 2.3 kb-GFP (kind gift from D. Rowe), Nestin-GFP (Mignone et al., 2004) and periostin knockout mice (kind gift from Juerg Huelsken) were used for these experiments. NOD SCID interleukin (IL)-2 receptor γ deficient (NSG) mice were purchased from Charles River Laboratories (Sulzfeld, Germany) and bred in our facility. All animal studies were approved by the local German government (Regierungspräsidium Darmstadt) in Hessen, Germany, and by the Institutional Animal Care and Use Committee (IACUC) of Boston University.
as §1

distal femora = test: Bone histomorphometry of distal femora; format: in vivo, mice
From the text: The femora were isolated and first fixed in 4% paraformaldehyde at 4C overnight and then in 70% ethanol for an additional 5 days. Fixed bones were dehydrated in graded ethanol, then embedded in methyl methacrylate without demineralization. Undecalcified 5 μm thick longitudinal sections were obtained using a microtome (RM2255, Leica Biosystem, IL, USA). The sections were stained with Goldner Trichrome and at least two consecutive sections per specimen were examined for measurements of cellular parameters. A standard histomorphometric analysis of the femur methaphysis was performed using the Osteomeasure analysis system (Osteometrics Inc, Decatur, GA, USA). Measurements were performed 200 μm below the distal growth plate. The observer was blinded to the experimental group at the time of measurement. The cellular parameters were calculated and expressed according to the standardized nomenclature (Dempster et al., 2013).

Lin− bone marrow cells = test: Culture of Lin− bone marrow cells in conditioned medium from stroma cells; format: cell-based, mice; conditions: conditioned medium from warfarin-treated stroma cells
Experimental: Conditioned medium was harvested from stroma from 5 mice grown in the above medium containing vehicle or warfarin for 7 days. Consequently, 100,000 Lin− cells were grown for 2-3 days in the conditioned medium and analyzed for cell counts by flow cytometry. Where indicated, the conditioned medium was concentrated using Microsep Advance Centrifugal Devices 30K Omega (Pall Life Sciences, Portsmouth, UK).

human CD34+ cells = test: Xenotransplantation of human CD34+ cells into warfarin-treated NSG mice; format: in vivo; conditions: warfarin- vs vehicle-treated NSG mice, 6 weeks after transplantation, P=0.015
Experimental: as §1
For the xenotransplantation experiments, we intravenously injected 1.3×10^5 human CD34+ cells, obtained via magnetic separation by magnetic beads (Miltenyi Biotech, Bergisch Gladbach, Germany) from BM filters used after harvest of non-mobilized HSPC from healthy allogeneic donors, into irradiated (250 cGy) NSG mice, which had previously been treated with vehicle or warfarin for 14 days.
We assessed the complete blood count of vehicle or warfarin-treated mice using a complete blood count analyzer (Scil Vet ABC, Gurnee, IL). […] Engraftment of human cells in NSG mice was assessed using anti-human CD45 (BD Biosciences, San José, CA).

CC(=O)CC(c1ccccc1)c1c(O)c2ccccc2oc1=O (centres unmarked) [warfarin]
absolute count and percentage of LKS, LKS SLAM and myeloid progenitor cells in the bone marrow (wildtype mice; 2 and 4 weeks, controls vs warfarin-treated mice): did not significantly differ | time at which the decrease in leukocytes and monocytes appeared (wildtype mice; after initiation of treatment): as early as three days | absolute number of monocytes in peripheral blood (wildtype mice; higher dose (0.5 mg/kg), P=0.007): reduced | absolute number of leukocytes in peripheral blood (wildtype mice; higher dose (0.5 mg/kg), P=0.008): reduced | absolute number of leukocytes in peripheral blood (wildtype mice; lower dose (0.05 mg/kg)): reduced | absolute number of monocytes in peripheral blood (wildtype mice; lower dose (0.05 mg/kg)): reduced | leukocyte and monocyte counts, oral versus subcutaneous administration (wildtype mice; oral versus subcutaneous): similarly reduced | lethal hemorrhagic complications (wildtype mice; subcutaneous versus oral treatment): fewer lethal hemorrhagic complications | lymphocyte count (wildtype mice; warfarin-treated mice): decreased, albeit to a lesser extent than myeloid cells | percentage of CD11b+ myeloid cells in peripheral blood (wildtype mice; warfarin-treated vs control mice, P=0.003): decreased | function of whole bone marrow cells in serial transplantation (HSC; P=0.004 after tertiary transplantation): impaired function | function of whole bone marrow cells in competitive transplantation (HSC; P=0.04 after 16 weeks): impaired function | reduction of functional HSC in limiting dilution assay (HSC; warfarin-treated vs control mice, P=0.0006, L-Calc): 7.6 fold | homing of Lin− and LKS cells to a warfarin-treated BMM (Lin− and LKS cells): not compromised | number of Col2.3 kb+ osteoblastic cells [1]: n.s. and no reduction | number of Nestin+ MSC ([1]; P=0.047): significant reduction | ratio of bone volume/tissue volume (BV/TV) (distal femora; P<0.001): decreased | number of osteoblasts (N.Ob/B.Pm) (distal femora; P=0.0001): significantly increased | osteoblast surface (Ob.S/BS) (distal femora; P=0.0008): significantly increased | osteoclast surface (Oc.S/BS) (distal femora; P=0.01): significantly increased | osteoid volume (OV/BV) (distal femora; P=0.046): significantly increased | cancellous bone mass (distal femora; distal femora, warfarin-treated vs control mice): dramatic reduction; also recorded: significant reduction | osteoclast differentiation or number (N.Oc/B.Pm) (distal femora; mouse, in vivo): absence of changes | trabecular number and thickness (distal femora; mouse, in vivo): reduced | trabecular separation (distal femora; mouse, in vivo): increased | Lin− cell fraction (Lin− bone marrow cells; P=0.0001): decrease | total number of hematopoietic cells (Lin− bone marrow cells; P=0.0009): decrease | myeloid cell fraction (Lin− bone marrow cells; P=0.001): decrease | engraftment of human CD45+ leukocytes (human CD34+ cells): reduced engraftment
